Peptide text beside a SMILES is read from it.
How the values were obtained:
cancer patients = conditions: patients treated with the drug; cited from earlier work
[1] = human, in vivo
Protocol: (§1) Data on human exposure to elsiglutide generated so far originate from three clinical trials, one performed in healthy subjects (study 06-013) and two in cancer patients (TIDE-09-04, TIDE-11-10). The main objective of the first two studies was the evaluation of the safety, tolerability and maximum tolerated dose (MTD) of ascending elsiglutide doses administered as s.c. (both studies) and i.v. (only study 06-013) bolus injections. In study 06-013 elsiglutide was administered as single i.v. or s.c. bolus, while in study TIDE-09-04 each dose was administered as s.c. bolus on 4 consecutive days. Study TIDE-11-10 was a phase II proof of concept study that mainly evaluated the efficacy of elsiglutide administered as 24 mg daily s.c. bolus injections for 4 consecutive days in preventing CID in patients with colorectal cancer receiving 5-FU based chemotherapy (FOLFOX4 or FOLFIRI regimen). The secondary objectives of all three studies included the evaluation of the pharmacokinetics of elsiglutide and its major metabolites in humans.

[2] = Clinical pharmacokinetics of elsiglutide and its metabolites (studies 06-013, TIDE-09-04, TIDE-11-10)
Protocol: as §1

Compound: CS(=O)(=O)CCNCc1ccc(-c2ccc3ncnc(Nc4ccc(OCc5cccc(F)c5)c(Cl)c4)c3c2)o1 [lapatinib]
- patients in whom diarrhea occurs (cancer patients): up to 60%

Compound: CC[C@H](C)[C@H](NC(=O)[C@H](CC(C)C)NC(=O)[C@H](Cc1c[nH]c2ccccc12)NC(=O)[C@H](C)NC(=O)[C@@H](NC(=O)[C@H](Cc1ccccc1)NC(=O)[C@H](CC(=O)O)NC(=O)[C@H](CCCNC(=N)N)NC(=O)[C@H](C)NC(=O)[C@H](C)NC(=O)[C@H](CC(C)C)NC(=O)[C@H](C)NC(=O)[C@H](CC(=O)O)NC(=O)[C@H](CC(C)C)NC(=O)[C@@H](NC(=O)[C@@H](NC(=O)[C@H](CO)NC(=O)[C@H](CC(C)C)NC(=O)[C@H](CCC(=O)O)NC(=O)[C@H](CO)NC(=O)[C@H](CO)NC(=O)[C@H](Cc1ccccc1)NC(=O)[C@H](CO)NC(=O)CNC(=O)[C@H](CCC(=O)O)NC(=O)CNC(=O)[C@@H](N)Cc1c[nH]cn1)[C@@H](C)O)[C@@H](C)CC)[C@@H](C)CC)C(=O)N[C@@H](C)C(=O)N[C@H](C(=O)N[C@@H](CCCCN)C(=O)N[C@H](C(=O)N[C@H](C(=O)N[C@@H](CC(=O)O)C(=O)N[C@@H](CCCCN)C(=O)O)[C@@H](C)O)[C@@H](C)CC)[C@@H](C)O [ZP2242] (H-HGEGSFSSELSTILDALAARDFIAWLIATKITDK-OH; N-terminus assumed)
- exposure to metabolite relative to exposure to the parent ZP1846 (elsiglutide) [1]: > 25 fold
- AUC of ZP2242 relative to that of ZP2712 ([2]; human, plasma): at least 10 times
- half-life ([2]; human, plasma): 6 to 9 h
- dose dependence of pharmacokinetics (Cmax and AUC increases proportional to dose) ([2]; study TIDE-09-04, s.c. on 4 consecutive days): dose independent
